# Measured values taken from patent publication US10470993B2, “Tooth remineralization compositions and methods” (priority 2013, dated 2019).
# System: S. mutans
# Type: cell-based
# Protocol: Chitosan is a known antimicrobial. The antimicrobial activities of chitosans were determined with XTT assay based on the measurement of bacterial metabolic activities. The bacteria include S. sanguis, S. fecalis, and S. mutans. […] The metabolic activity and viability of S. mutans was decreased with the increase of the molecular weight of chitosan from 1K to 10K, as shown in FIG. 3. […] The relative viability of S. mutans treated with chitosan 10K was only about 10% as compared to the control. […] The chitosan with molecular weight of 10K reached the greatest inhibition effect against S. mutans in our XTT assay.
# The antimicrobial activity of chitosan 10K was tested on three different oral bacteria which are major bacteria responsible for the occurrence of dental caries. […] The antimicrobial effects are concentration dependent and increased with increased chitosan concentration.
row,Substance,relative viability of S. mutans as compared to the control
1,chitosan [chitosan 10K],about 10%
2,chitosan [chitosan 5K],55%
